Laboratory results taken from ChEMBL document CHEMBL1143399, “A small-molecule nitroimidazopyran drug candidate for the treatment of tuberculosis” (Nature, 2000).
≈ marks a conversion by molar mass, not a printed value.

How the values were obtained:
Type in all cases: functional
[1] = tested on: Mycobacterium tuberculosis; experiment: Antimycobacterial activity against mono-rifampin-resistant Mycobacterium tuberculosis TN675
[2] = tested on: Mycobacterium tuberculosis; experiment: Antimycobacterial activity against multidrug-resistant Mycobacterium tuberculosis TN576
[3] = tested on: Mycobacterium tuberculosis; experiment: Antimycobacterial activity against multidrug-resistant Mycobacterium tuberculosis TN1314
[4] = tested on: Mycobacterium tuberculosis; experiment: Antimycobacterial activity against multidrug-resistant Mycobacterium tuberculosis TN1618
[5] = tested on: Mycobacterium tuberculosis; experiment: Antimycobacterial activity against multidrug-resistant Mycobacterium tuberculosis TN715
[6] = tested on: Mycobacterium tuberculosis; experiment: Antimycobacterial activity against multidrug-resistant Mycobacterium tuberculosis TN768
[7] = tested on: Mycobacterium tuberculosis; experiment: Antimycobacterial activity against mono-rifampin-resistant Mycobacterium tuberculosis TN994
[8] = tested on: Mycobacterium tuberculosis; experiment: Antimycobacterial activity against multidrug-resistant Mycobacterium tuberculosis TN772
[9] = tested on: Mycobacterium tuberculosis; experiment: Antimycobacterial activity against multidrug-resistant Mycobacterium tuberculosis TN702
[10] = tested on: Mycobacterium tuberculosis; experiment: Antimycobacterial activity against multidrug-resistant Mycobacterium tuberculosis TN1195
[11] = tested on: Mycobacterium tuberculosis; experiment: Antimycobacterial activity against multidrug-resistant Mycobacterium tuberculosis TN1811
[12] = tested on: Mycobacterium tuberculosis; experiment: Antimycobacterial activity against multidrug-resistant Mycobacterium tuberculosis TN565
[13] = tested on: Mycobacterium tuberculosis; experiment: Antimycobacterial activity against multidrug-resistant Mycobacterium tuberculosis TN2557

| SMILES | MIC [1] | MIC [2] | MIC [3] | MIC [4] | MIC [5] | MIC [6] | MIC [7] | MIC [8] | MIC [9] | MIC [10] | MIC [11] | MIC [12] | MIC [13] |
| --- | --- | --- | --- | --- | --- | --- | --- | --- | --- | --- | --- | --- | --- |
| O=[N+]([O-])c1cn2c(n1)OC[C@@H](OCc1ccc(OC(F)(F)F)cc1)C2 [PRETOMANID] | 0.015 µg/mL (≈ 0.0418 µM) | 0.06 µg/mL (≈ 0.167 µM) | 0.03 µg/mL (≈ 0.0835 µM) | 0.06 µg/mL (≈ 0.167 µM) | 0.06 µg/mL (≈ 0.167 µM) | 0.06 µg/mL (≈ 0.167 µM) | 0.03 µg/mL (≈ 0.0835 µM) | 0.03 µg/mL (≈ 0.0835 µM) | 0.25 µg/mL (≈ 0.696 µM) | 0.25 µg/mL (≈ 0.696 µM) | 0.03 µg/mL (≈ 0.0835 µM) | 0.06 µg/mL (≈ 0.167 µM) | 0.13 µg/mL (≈ 0.362 µM) |
| NNC(=O)c1ccncc1 [ISONIAZID] | 0.03 µg/mL (≈ 0.219 µM) |  |  |  |  |  | 0.03 µg/mL (≈ 0.219 µM) |  |  |  |  |  |  |
